From US11697667B2, “Salts and polymorphs of cethromycin for the treatment of disease” (AliquantumRx, Inc., priority 2019, dated 2023)

What was measured:
[1] = test system: malaria (infective sporozoites); assay: Liver stage activity in murine malaria model; type: in vivo, mice
Description: Quantifiable endpoints may include measured activity against malaria.

malaria = assay: Mouse malaria blood stage high parasitemia parasite killing model; type: in vivo, mice
Description: Additionally or alternatively, mouse malaria blood stage activity may be tested in a high parasitemia parasite killing model (n=5 mice/dose) to assess rate of killing and minimal dose and duration for cure as disclosed above and/or according to methods known in the art. Quantifiable endpoints may include measured activity against malaria.

[2] = Storage stability at 40° C./75% RH and 25° C./97% RH (PXRD, HPLC, NMR); type: physicochemical; details: 7 days
Method: Studies were performed on various cethromycin forms in order to determine stability for storage.

[3] = Variable-temperature PXRD / thermal behaviour of acetate pattern 1; type: physicochemical; details: after VT PXRD
Method: For variable temperature (VT-XRPD) experiments samples were mounted on an Anton Paar DHS 900 hot stage at ambient conditions. The sample was then heated to the appropriate temperature at 20° C./min and subsequently held isothermally for 1 minute before data collection. Samples were prepared and analysed on a silicon wafer mounted to the hot stage using a heat-conducting paste.
In order to investigate this further a VT PXRD experiment on this material was carried out. On heating, the original white powder converts first to a translucent solid by 130° C., then to a translucent white solid by 170° C. This conversion is accompanied by loss of the original diffraction pattern is lost and appearance of a new diffraction pattern. […] The material is stable at RT.

| Structure (SMILES) | Liver stage activity relative to the activity of cethromycin chloride [1] | Blood stage activity relative to the activity of cethromycin chloride (malaria) | HPLC Purity after storage at 40° C./75% RH for 7 days [2] [%] | PXRD after storage at 40° C./75% RH for 7 days ([2]; made from acetate pattern 1 by heating to 150° C.) | Stability of the form at RT [3] |
| --- | --- | --- | --- | --- | --- |
| CCC1OC(=O)C(C)C(=O)C(C)C(OC2OC(C)CC(NC)C2O)C(C)(OCC=Cc2cnc3ccccc3c2)CC(C)C(=O)C(C)C2NC(=O)OC12C (centres unmarked) [M1 metabolite, N-desmethyl cethromycin] | less than 30% | less than 30% | – | – | – |
| CC[C@H]1OC(=O)[C@H](C)C(=O)[C@H](C)[C@@H](O[C@@H]2O[C@H](C)C[C@H](N(C)C)[C@H]2O)[C@](C)(OCC=Cc2cnc3ccccc3c2)C[C@@H](C)C(=O)[C@H](C)[C@H]2NC(=O)O[C@@]21C [freebase pattern 1] | – | – | 96.6 | freebase pattern 1 | stable at RT |
